# According to patent US20250228821A1 (priority 2022, published 2025):
# How the values were obtained:
# [1] = human, microsomes, 1 μM
# [2] = system: protein kinase C; settings: cited from earlier work
# [3] = single dose 32 mg ruboxistaurin, healthy subjects (FIG. 5); cited from earlier work
# [4] = in vivo; cited from earlier work
# [5] = system: rats treated with dextroamphetamine; experiment: Ultrasonic vocalizations in rats induced by dextroamphetamine; type: in vivo, male Wistar rats; settings: rats, 10, 30, 100 mg/kg IP 60 minutes before D-amphetamine 2.5 mg/kg IP (FIG. 9)
# Description: 98 male Wistar rats were acclimated to the testing facility and handled daily (10 min/day) for 7 days prior to initiating the experiment. […] Rats were placed in white Plexiglas boxes (50×50×50 cm) and videotaped for 10 minutes to acclimate them to the test apparatus. Ultrasonic vocalizations (USV) were recorded with a microphone mounted 45 cm above the open field box to establish baseline, non-treatment related USV responses (50-kHz calls) in each rat. The next day, rats were injected with saline (1 mL/kg body weight, IP) and immediately placed into open field-testing boxes. USVs were recorded for 10 min.
# [6] = Blood/brain barrier penetration, pharmacokinetic study in rats; settings: rat, 1 mg/kg intravenously
# Excerpt: Blood samples were collected from 3 animals at 0.25, 1-, and 4-hours post-dose. Brain samples were collected from 9 other rats, 3 each at 0.25, 1-, and 4-hours post-dose. Brain samples were weighted and homogenized with phosphate buffered saline.
Compound,increase of compound levels at 15 minutes by CYP3A4 inhibitor troleandomycin [1] [fold],"potency of protein kinase C inhibition, ruboxistaurin vs. N-desmethyl ruboxistaurin [2]",half-life (t½) [3] [h],elimination half-life [4],effect on ultrasonic appetitive vocalizations (50-kHz calls) [5],Mean brain ([6]; 0.25 hr) [ng/g],Mean plasma ([6]; 0.25 hr) [ng/mL],Mean brain ([6]; 1 hr) [ng/g],Mean plasma ([6]; 1 hr) [ng/mL],Mean brain ([6]; 4 hr) [ng/g],Mean plasma ([6]; 4 hr) [ng/mL]
CN(C)C[C@@H]1CCn2cc(c3ccccc32)C2=C(C(=O)NC2=O)c2cn(c3ccccc23)CCO1 [Ruboxistaurin],23,equipotent,5.25,–,–,–,–,–,–,–,–
[Li] [lithium],–,–,–,about 18 hours,–,–,–,–,–,–,–
"(12E,32E,7S)-7-((methylamino)methyl)-22,25-dihydro-11H,21H,31H-6-oxa-1,3(3,1)-diindola-2(3,4)-pyrrolacyclononaphane-22,25-dione hydrochloride [N-desmethyl ruboxistaurin]",–,–,23.9,–,able to reduce ultrasonic appetitive vocalizations,21.0,73.3,19.5,43.5,13.3,11.8
